From the CheMixHub ionic liquid set

Experiment: xn = mol fraction of the nth substance listed

CCCC[n+]1ccn(C)c1.COP(=O)([O-])OC + CCO
viscosity [mPa·s], 101 kPa
Settings | 293.15 K | 298.15 K | 308.15 K | 313.15 K | 318.15 K | 323.15 K | 328.15 K | 333.15 K
x2 = 0.201 | – | – | 155.7 | – | – | – | – | –
x2 = 0.399 | 150.9 | 114.4 | – | 55.65 | 45.2 | 37.08 | 30.89 | 25.94
x2 = 0.8 | – | – | 5.933 | 5.272 | – | 4.227 | 3.811 | –

CCCC[N+]1(C)CCCC1.O=S(=O)([N-]S(=O)(=O)C(F)(F)F)C(F)(F)F + CC1COC(=O)O1
Settings | electrical conductivity [S/m] | viscosity [mPa·s]
253.15 K, 101 kPa, x2 = 0.11 | 0.026 | –
253.15 K, 101 kPa, x2 = 0.21 | 0.04 | –
253.15 K, 101 kPa, x2 = 0.47 | 0.108 | –
253.15 K, 101 kPa, x2 = 0.63 | 0.183 | –
253.15 K, 101 kPa, x2 = 0.79 | 0.27 | –
253.15 K, 101 kPa, x2 = 0.89 | 0.283 | –
258.15 K, 101 kPa, x2 = 0.16 | 0.052 | –
258.15 K, 101 kPa, x2 = 0.26 | 0.073 | –
258.15 K, 101 kPa, x2 = 0.58 | 0.199 | –
263.15 K, 101 kPa, x2 = 0.05 | 0.053 | –
263.15 K, 101 kPa, x2 = 0.37 | 0.14 | –
263.15 K, 101 kPa, x2 = 0.53 | 0.225 | –
268.15 K, 101 kPa, x2 = 0.68 | 0.418 | –
273.15 K, 101 kPa, x2 = 0 | 0.109 | –
273.15 K, 101 kPa, x2 = 0.26 | 0.195 | –
273.15 K, 101 kPa, x2 = 0.42 | 0.281 | –
273.15 K, 101 kPa, x2 = 0.74 | 0.535 | –
278.15 K, 101 kPa, x2 = 0.26 | 0.253 | –
278.15 K, 101 kPa, x2 = 0.95 | 0.504 | –
283.15 K, 101 kPa, x2 = 0.05 | 0.212 | –
283.15 K, 101 kPa, x2 = 0.16 | 0.257 | –
283.15 K, 101 kPa, x2 = 0.37 | 0.382 | –
283.15 K, 101 kPa, x2 = 0.58 | 0.557 | –
283.15 K, 101 kPa, x2 = 0.68 | 0.654 | –
283.15 K, 101 kPa, x2 = 0.89 | 0.698 | –
283.15 K, 101 kPa, x2 = 0.95 | 0.566 | –
283.15 K, 101 kPa, x2 = 0.97 | 0.458 | –
288.15 K, 101 kPa, x2 = 0.26 | 0.384 | –
288.15 K, 101 kPa, x2 = 0.47 | 0.547 | –
288.15 K, 101 kPa, x2 = 0.74 | 0.787 | –
288.15 K, 101 kPa, x2 = 0.79 | 0.817 | –
293.15 K, 100 kPa, x2 = 0.8 | 0.93 | 7.8
293.15 K, 101 kPa, x2 = 0 | 0.303 | 86.1
293.15 K, 101 kPa, x2 = 0.53 | 0.689 | 21.23
293.15 K, 101 kPa, x2 = 0.79 | 0.91 | 7.77
298.15 K, 101 kPa, x2 = 0.32 | 0.581 | 28.28
298.15 K, 101 kPa, x2 = 0.37 | – | 25.45
298.15 K, 101 kPa, x2 = 0.42 | 0.678 | 22.81
298.15 K, 101 kPa, x2 = 0.63 | 0.892 | 12.82
303.15 K, 101 kPa, x2 = 0.21 | 0.574 | 29.14
303.15 K, 101 kPa, x2 = 0.42 | 0.771 | 19
303.15 K, 101 kPa, x2 = 0.63 | 1.001 | 10.87
303.15 K, 101 kPa, x2 = 0.74 | 1.091 | 7.36
303.15 K, 101 kPa, x2 = 0.84 | 1.099 | 4.68
308.15 K, 101 kPa, x2 = 0.37 | 0.816 | 17.76
313.15 K, 101 kPa, x2 = 0.21 | 0.75 | 20.27
313.15 K, 101 kPa, x2 = 0.32 | 0.858 | 16.62
313.15 K, 101 kPa, x2 = 0.47 | 1.036 | 12.28
313.15 K, 101 kPa, x2 = 0.79 | 1.3 | 4.64
313.15 K, 101 kPa, x2 = 0.84 | 1.271 | 3.75
313.15 K, 101 kPa, x2 = 0.97 | 0.721 | –
318.15 K, 101 kPa, x2 = 0 | – | 29.72
318.15 K, 101 kPa, x2 = 0.05 | – | 25.14
318.15 K, 101 kPa, x2 = 0.47 | – | 10.64
318.15 K, 101 kPa, x2 = 0.89 | – | 2.77

100 kPa, frequency 0.003 MHz
Settings | electrical conductivity [S/m]
297.1 K, x1 = 0.8 | 0.396
299.8 K, x1 = 0.4 | 0.804
299.9 K, x1 = 0.8 | 0.413
310.9 K, x1 = 0.8 | 0.527
313.5 K, x1 = 0.4 | 0.931
313.7 K, x1 = 0.2 | 1.15
313.7 K, x1 = 0.8 | 0.552
316.2 K, x1 = 0.2 | 1.17
319.3 K, x1 = 0.6 | 0.727
322.3 K, x1 = 0.9 | 0.559
327.6 K, x1 = 0.6 | 0.788
330.3 K, x1 = 0.2 | 1.26
330.6 K, x1 = 0.9 | 0.636
338.9 K, x1 = 0.2 | 1.31
338.9 K, x1 = 0.8 | 0.768
341.4 K, x1 = 0.8 | 0.788
341.6 K, x1 = 0.6 | 0.886
346.8 K, x1 = 0.4 | 1.18
349.7 K, x1 = 0.4 | 1.21

CCOP(=O)([O-])OCC.CC[n+]1ccn(C)c1 + CCO
100 kPa
Settings | viscosity [mPa·s]
293.15 K, x1 = 0.7003 | 178
293.15 K, x1 = 0.8985 | 379
293.15 K, x1 = 1 | 566
298.15 K, x1 = 0.4007 | 29.8
298.15 K, x1 = 0.7003 | 133.2
303.15 K, x1 = 0.4007 | 24.8
303.15 K, x1 = 0.8 | 139.2
303.15 K, x1 = 0.8985 | 197
308.15 K, x1 = 0.7003 | 79.6
313.15 K, x1 = 1 | 155
318.15 K, x1 = 0.8985 | 86.8
323.15 K, x1 = 0.7003 | 41.1
328.15 K, x1 = 0.1002 | 2.16
328.15 K, x1 = 0.1992 | 4.29
328.15 K, x1 = 0.5993 | 24.4
333.15 K, x1 = 0.4007 | 10.87
338.15 K, x1 = 0.7003 | 23.7
